{
  "source": "patent US20250368651A1",
  "about": "(priority 2022, published 2025)",
  "key": {"SMN2 exon 7 splicing": {"test_system": "SMN2 exon 7 splicing", "assay": "Cell-based SMN2 splicing assay in 293T cells (minigene)", "parameters": "species or system human", "settings": "Homo sapiens, HEK-293T"}, "DNA S10 […]": {"target": "DNA S10 […]", "assay": "FP binding assay, 18-nt DNA S10", "experimental": "(§1) All synthetic DNA and RNA oligomers were purchased from Integrated DNA Technologies and reconstituted in nuclease-free water (Invitrogen #AM9932) at 1 mM. The concentration of the oligonucleotides at ˜0.1 mM was calibrated with the A260 value measured by a NanoDrop ND-1000 (Thermo, Waltham, MA, USA) and the predicted extinction coefficient (http://www.oligoevaluator.com) using Lamber-Beer's Law. The risdiplam analogues (1 mM in DMSO) were diluted in 2× assay buffer (40 mM HEPES, 200 mM NaCl for RNA; 40 mM HEPES, 200 mM NaCl, 1 mM MgCl2 for DNA) to make a 1 μM 2× working solution.\n(§2) A 1:2 dilution series (8 points) of each oligonucleotide was prepared in 20-30 μL water to desired concentrations (i.e., 1-128 μM). […] For fluorescence polarization measurement, 20 μL of the above 1× working solution was transferred into a 384-well, black, F-bottom microplates (Greiner Bio-One) in duplicates or triplicates. The plate was equilibrated at room temperature for 5 min before being read using a microplate reader (SYNERGY H1, BioTek; Excitation/Emission=360/460 nm) at 25° C. […] The mixture was then transferred into a microplate (20 μL each well) in duplicates for fluorescence polarization readout. The experimental data were analyzed using Prism 8 software (Graphpad Software, San Diego, CA, USA)."}, "DNA Seq11 TGGAGGAAGGT": {"target": "DNA Seq11 TGGAGGAAGGT", "assay": "FP binding assay, DNA Seq11", "settings": "Seq 11 TGGAGGAAGGT; 0.5 μM SMN-C2", "experimental": "as §1, §2"}, "DNA S23 […]": {"target": "DNA S23 […]", "assay": "FP binding assay, 18-nt DNA S23", "experimental": "as §1, §2"}, "DNA S18 […]": {"target": "DNA S18 […]", "assay": "FP binding assay, 18-nt DNA S18", "experimental": "as §1, §2"}, "RNA Seq8 UGAAGGAAGUU": {"target": "RNA Seq8 UGAAGGAAGUU", "assay": "FP binding assay, RNA Seq8", "settings": "Seq 8 UGAAGGAAGUU; 0.5 μM SMN-C2", "experimental": "as §1, §2"}, "DNA S22 […]": {"target": "DNA S22 […]", "assay": "FP binding assay, 18-nt DNA S22", "experimental": "as §1, §2"}, "[1]": {"target": "RNA Seq18: 1:1 annealed U1 snRNA binding sequence 5′-AUACΨΨACCU and 5′ splice site 5′-GGAGGUAAGUCU", "assay": "FP binding assay, dsRNA Seq18 (binding site 1 sequence)", "settings": "Seq 18, binding site 1 sequence (dsRNA); 0.5 μM SMN-C2", "experimental": "as §1, §2"}, "DNA S4 […]": {"target": "DNA S4 […]", "assay": "FP binding assay, 18-nt DNA S4", "experimental": "as §1, §2"}, "5′-biotinylated RNA Seq4": {"target": "5′-biotinylated RNA Seq4", "assay": "Surface plasmon resonance (SPR) assay, RNA Seq4", "format": "binding", "settings": "footnote b: SPR assay for RNA Seq4", "experimental": "SPR experiments were performed on a Biacore T200 (GE Healthcare) instrument at 25° C. using streptavidin pre-coated SA sensor chips (GE Healthcare). The running buffer composed of 10 mM HEPES, 100 mM NaCl, 0.05% Tween 20 (w/v), 5 mM EDTA, 0.1% (v/v) DMSO at pH 6.8 was prepared freshly, filtered through the […] PVDF membrane prior to use. 5′-biotinylated RNA Seq4 was purchased from GenScript and dissolved in nuclease-free water to a concentration of 100 μM. For immobilization of the biotinylated RNA, the sensor chip was firstly conditioned with 3 consecutive 1 min injections of high salt solution (50 mM NaOH, 1M NaCl) at a flow rate of […]. Next, the biotinylated RNA was diluted 1000× in running buffer (100 nM) and applied over the streptavidin sensor chip surface at a flow rate of 10 μL/min to achieve immobilization level of about 800 RU. Finally, alkyne-PEG-biotin (50 μM in running buffer) was injected (1 min, […]) to block remaining streptavidin surface binding sites. The kinetics analysis was performed following the BiaControl Software Wizard Kinetics protocol. […] All monitored resonance signals were subtracted with signals from a non-binding reference channel. Kinetic values (Kd, ka, kd) were calculated using the BiaEvaluation Software Binding Affinity protocol with 1:1 fitting. […]"}, "[2]": {"target": "DNA Seq8 (UGAAGGAAGUU as deoxyribonucleotides)", "assay": "FP binding assay, DNA Seq8", "settings": "Seq 8; 0.5 μM SMN-C2", "experimental": "as §1, §2"}, "DNA S5 […]": {"target": "DNA S5 […]", "assay": "FP binding assay, 18-nt DNA S5", "experimental": "as §1, §2"}, "DNA S7 […]": {"target": "DNA S7 […]", "assay": "FP binding assay, 18-nt DNA S7", "experimental": "as §1, §2"}, "DNA S17 […]": {"target": "DNA S17 […]", "assay": "FP binding assay, 18-nt DNA S17", "experimental": "as §1, §2"}, "RNA Seq13 UGAAGAAAGGU": {"target": "RNA Seq13 UGAAGAAAGGU", "assay": "FP binding assay, RNA Seq13", "settings": "Seq 13 UGAAGAAAGGU; 0.5 μM SMN-C2", "experimental": "as §1, §2"}, "[3]": {"target": "DNA Seq6 (UGAAGGAAGGU as deoxyribonucleotides)", "assay": "FP binding assay, DNA Seq6", "experimental": "as §1\nA 1:2 dilution series (8 points) of each oligonucleotide was prepared in 20-30 μL water to desired concentrations (i.e., 1-128 μM). 20-30 μL 2× working solution containing the 2× assay buffer and the small-molecule ligand was added to each oligonucleotide sample in 1:1 (v/v) and mixed by pipetting for 4 times. For fluorescence polarization measurement, 20 μL of the above 1× working solution was transferred into a 384-well, black, F-bottom microplates (Greiner Bio-One) in duplicates or triplicates. The plate was equilibrated at room temperature for 5 min before being read using a microplate reader (SYNERGY H1, BioTek; Excitation/Emission=360/460 nm) at 25° C. For compound SMN-C5, a competitive binding assay was employed to measure an apparent Kd. SMN-C5 was 1:2 serial diluted for 10 concentration points starting at 750 μM in DMSO. A mixture of SMN-C2 (0.5 μM) and DNA Seq6 (25 μM) in 1× assay buffer was prepared and incubated at room temperature for 10 minutes. 3 μL of SMN-C5 solution at each concentration was added to a 42 μL SMN-C2/DNA Seq6 mixture and incubated at room temperature for 10 minutes. The mixture was then transferred into a microplate (20 μL each well) in duplicates for fluorescence polarization readout. The experimental data were analyzed using Prism 8 software (Graphpad Software, San Diego, CA, USA)."}, "DNA S24 […]": {"target": "DNA S24 […]", "assay": "FP binding assay, 18-nt DNA S24", "experimental": "as §1, §2"}},
  "note": "Like-named read-outs stand apart in the source and are kept apart here.",
  "data": [
    {"molecule": "CCN1CCN(c2ccc3cc(-c4cn5cc(C)nc(C)c5n4)c(=O)oc3c2)C[C@@H]1C", "note": "[SMN-C2, (S)-3-(6,8-dimethylimidazo[1,2-a]pyrazin-2-yl)-7-(4-ethyl-3-methylpiperazin-1-yl)-2H-chromen-2-one]", "values": [
      {"measurement": "EC50", "setting": "SMN2 exon 7 splicing; Table 3, read-out: SMN2 Splicing EC50", "result": "0.0635 ± 0.0296", "unit": "µM"},
      {"measurement": "EC50", "setting": "SMN2 exon 7 splicing; cell-based SMN2 splicing assay in 293T cells, read-out: SMN2 EC50", "result": "0.26 ± 0.13", "unit": "µM"},
      {"measurement": "Kd", "setting": "DNA S10 […]", "result": "26.4 ± 2.2", "unit": "µM"},
      {"measurement": "Kd", "setting": "DNA Seq11 TGGAGGAAGGT", "result": "57.3 ± 20", "unit": "µM"},
      {"measurement": "Kd", "setting": "DNA S23 […]", "result": "> 50", "unit": "µM"},
      {"measurement": "Kd", "setting": "DNA S18 […]", "result": "> 50", "unit": "µM"},
      {"measurement": "Kd", "setting": "RNA Seq8 UGAAGGAAGUU", "result": "> 100", "unit": "µM"},
      {"measurement": "Kd", "setting": "DNA S22 […]", "result": "44.7 ± 7.2", "unit": "µM"},
      {"measurement": "Kd", "setting": "[1]", "result": "60 ± 36", "unit": "µM"},
      {"measurement": "Kd", "setting": "DNA S4 […]", "result": "> 50", "unit": "µM"},
      {"measurement": "Kd", "setting": "5′-biotinylated RNA Seq4", "result": 5.4, "unit": "µM"},
      {"measurement": "Kd", "setting": "[2]", "result": "14.7 ± 0.7", "unit": "µM"},
      {"measurement": "Kd", "setting": "DNA S5 […]", "result": "42.3 ± 4.2", "unit": "µM"},
      {"measurement": "Kd", "setting": "DNA S7 […]", "result": "17.3 ± 1.7", "unit": "µM"},
      {"measurement": "Kd", "setting": "DNA S17 […]", "result": "16.5 ± 1.1", "unit": "µM"},
      {"measurement": "Kd", "setting": "RNA Seq13 UGAAGAAAGGU", "result": "> 100", "unit": "µM"},
      {"measurement": "Kd", "setting": "[3]; Seq 6, 0.5 μM SMN-C2, range = 95% CI, read-out: DNA Kd", "result": "3.1 ± 0.7", "unit": "µM"},
      {"measurement": "decrease in binding affinity by any single-point mutation of the core sequence", "setting": "[3]; Seq10-17 vs Seq6", "result": "≥ 5", "unit": "fold"},
      {"measurement": "Kd", "setting": "DNA S24 […]", "result": "36.8 ± 11.4", "unit": "µM"}
    ]}
  ]
}
